In patent US20240400553A1, “AMINE BASED MATRIPTASE 2 INHIBITORS AND USES THEREOF” (Disc Medicine, Inc., priority 2023, published 2024):

Target: T1, Human Recombinant Matriptase 2 (Homo sapiens, UniProt Q8IU80)
T1 construct: made in house
T1 sequence (Q8IU80 1-811): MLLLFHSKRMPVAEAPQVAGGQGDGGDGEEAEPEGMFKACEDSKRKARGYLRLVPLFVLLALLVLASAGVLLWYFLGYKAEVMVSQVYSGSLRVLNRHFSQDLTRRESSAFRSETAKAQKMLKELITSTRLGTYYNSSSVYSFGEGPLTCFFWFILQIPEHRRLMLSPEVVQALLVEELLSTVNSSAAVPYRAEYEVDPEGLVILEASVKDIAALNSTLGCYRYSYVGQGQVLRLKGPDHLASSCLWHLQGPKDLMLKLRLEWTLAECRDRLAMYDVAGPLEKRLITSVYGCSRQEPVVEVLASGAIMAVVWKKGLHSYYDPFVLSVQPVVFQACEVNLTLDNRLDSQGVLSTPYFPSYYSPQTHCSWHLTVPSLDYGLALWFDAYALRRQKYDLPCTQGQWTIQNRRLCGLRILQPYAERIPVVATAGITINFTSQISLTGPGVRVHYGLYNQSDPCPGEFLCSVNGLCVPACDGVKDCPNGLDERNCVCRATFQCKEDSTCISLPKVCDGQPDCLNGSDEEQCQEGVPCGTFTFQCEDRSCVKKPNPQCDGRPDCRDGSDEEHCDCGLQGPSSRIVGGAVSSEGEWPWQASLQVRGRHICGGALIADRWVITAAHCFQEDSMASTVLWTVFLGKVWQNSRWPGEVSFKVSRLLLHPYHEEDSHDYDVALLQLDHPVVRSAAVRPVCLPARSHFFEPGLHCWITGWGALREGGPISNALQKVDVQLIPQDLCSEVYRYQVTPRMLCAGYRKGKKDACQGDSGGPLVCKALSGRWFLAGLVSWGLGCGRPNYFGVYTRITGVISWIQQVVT
Test: Matriptase 2 inhibition, fluorescence based assay (Method I)
Assay type: biochemical
Details: Table A; Ki of Matriptase-2; read-out: Mat-2 Ki
In short: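 Fluorogenic readout (Ex 360/Em 480 nm) taken 60 min after adding 62 μM Boc-Gln-Ala-Arg-AMC, following 30-min enzyme–compound preincubation at 25 °C. Conditions: 3.5 nM in-house enzyme, pH 7.5 Tris/NaCl/gelatin buffer, 1% DMSO; percent inhibition versus concentration fitted by variable-slope sigmoidal regression.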

Row | Ki [nM] | Structure (SMILES)
1 | 100 to 500 | NCc1ccc2cc(C(=O)OCCF)n(Cc3cc(NS(=O)(=O)Cc4ccccc4)cc4ccccc34)c2n1 [Compound 105, 2-fluoroethyl 6-(amino-methyl)-1-{[3-(phenyl-methanesulfonamido)-naphthalen-1-yl]methyl}-1H-pyrrolo[2,3-b]pyr-idine-2-carboxylate]
2 | 100 to 500 | CC(C)(C)n1ccc(COC(=O)c2cc3ccc(CN)nc3n2Cc2cc(NS(=O)(=O)Cc3ccccc3)cc3ccccc23)n1 [Compound 106, (1-tert-butyl-1H-pyrazol-3-yl)methyl 6-(amino-methyl)-1-{[3-(phenyl-methanesulfonamido)-naphthalen-1-yl]methyl}-1H-pyrrolo[2,3-b]pyr-idine-2-carboxylate]
3 | 100 to 500 | NCc1ccc2cc(C(=O)OCC3CCN(CC(F)F)CC3)n(Cc3cc(NS(=O)(=O)Cc4ccccc4)cc4ccccc34)c2n1 [Compound 107, [1-(2,2-difluoroethyl)-piperidin-4-yl]methyl 6-(aminomethyl)-1-{[3-(phenylmethanesulfon-amido)naphthalen-1-yl]-methyl}-1H-pyrrolo[2,3-b]pyridine-2-carboxylate]
4 | 100 to 500 | CN(c1cc(Cn2c(C(=O)O)cc3ccc(CN)nc32)c2ccccc2c1)S(=O)(=O)Cc1ccccc1 [Compound 109, 6-(aminomethyl)-1-{[3-(N-methylphenylmeth-anesulfonamido)naph-thalen-1-yl]methyl}-1H-pyrrolo[2,3-b]pyridine-2-carboxylic acid]
5 | 100 to 500 | CC(C)(C)n1nccc1COC(=O)c1cc2ccc(CN)nc2n1Cc1cc(NS(=O)(=O)Cc2ccccc2)cc2ccccc12 [Compound 110]
6 | 100 to 500 | CC(C)n1nccc1COC(=O)c1cc2ccc(CN)nc2n1Cc1cc(NS(=O)(=O)Cc2ccccc2)cc2ccccc12 [Compound 111, [1-(propan-2-yl)-1H-pyrazol-5-yl]methyl 6-(aminomethyl)-1-{[3-(phenylmethanesulfon-amido)naphthalen-1-yl]-methyl}-1H-pyrrolo-[2,3-b]pyridine-2-car-boxylate]
7 | 500 to 3000 | CC(C)OC(=O)c1cc2ccc(CN)nc2n1Cc1cc(NS(=O)(=O)Cc2ccccc2)cc2ccccc12 [Compound 112, propan-2-yl 6-(amino-methyl)-1-{[3-(phenyl-methanesulfonamido)-naphthalen-1-yl]methyl}-1H-pyrrolo[2,3-b]pyr-idine-2-carboxylate]
8 | 500 to 3000 | NCc1ccc2cc(C(=O)O)n(Cc3cc(NS(=O)(=O)C4(c5ccccc5)CC4)cc4ccccc34)c2n1 [Compound 113, 6-(aminomethyl)-1-{[3-(1-phenylcyclopropane-sulfonamido)naphthalen-1-yl]methyl}-1H-pyr-rolo[2,3-b]pyridine-2-carboxylic acid]
9 | 500 to 3000 | NCc1ccc2cc(C(=O)OCCn3cccc3)n(Cc3cc(NS(=O)(=O)Cc4ccccc4)cc4ccccc34)c2n1 [Compound 114, 2-(1H-pyrrol-1-yl)ethyl 6-(aminomethyl)-1-{[3-(phenylmethanesulfon-amido)naphthalen-1-yl]-methyl}-1H-pyrrolo[2,3-b]pyridine-2-carboxylate]
10 | 500 to 3000 | CCOC(=O)c1cc2ccc(CN)nc2n1Cc1cc(NS(=O)(=O)Cc2ccccc2)cc2ccccc12 [Compound 115, ethyl 6-(aminomethyl)-1-{[3-(phenylmethanesul-fonamido)naphthalen-1-yl]methyl}-1H-pyrrolo-[2,3-b]pyridine-2-car-boxylate]
11 | 500 to 3000 | COC(=O)c1cc2ccc(CN)nc2n1Cc1cc(NS(=O)(=O)Cc2ccccc2)cc2ccccc12 [Compound 116, methyl 6-(aminomethyl)-1-{[3-(phenylmethane-sulfonamido)naphthalen-1-yl]methyl}-1H-pyrrolo-[2,3-b]pyridine-2-car-boxylate]
12 | 500 to 3000 | NCc1ccc2cc(C(=O)OCC34CC(F)(C3)C4)n(Cc3cc(NS(=O)(=O)Cc4ccccc4)cc4ccccc34)c2n1 [Compound 117, {3-fluorobicyclo[1.1.1]-pentan-1-yl}methyl 6-(aminomethyl)-1-{[3-(phenylmethanesulfon-amido)naphthalen-1-yl]-methyl}-1H-pyrrolo[2,3-b]pyridine-2-carboxylate]
